This note sets out measurements from patent publication US11780826B2 (Amgen Inc., priority 2017, dated 2023).

SMILES strings stand for the structures.

In the first test the test system is Bovine cardiac myofibrils. Put plainly: In vitro model of dose-dependent myofibril ATPase modulation (AC1.4, pyruvate kinase/lactate dehydrogenase-coupled ATPase assay at pCa25). It is filed as biochemical. The conditions noted are these: concentration at which ATPase activity was 1.4-fold higher than the bottom of the dose curve, mean of a minimum of two independent tests. In short, it runs like this: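 Detergent-skinned bovine cardiac myofibrils (typically 0.25-1.0 mg/ml) in Ca-buffered (EGTA/CaCl2) PK/LDH-coupled ATPase assay: 12 mM K-PIPES pH 6.80, 2 mM MgCl2, 1 mM ATP, 1 mM DTT, 0.5 mM NADH, 1.5 mM PEP. Hydrolysis followed at 340 nm; dose response fit to 4-parameter equation; AC1.4 is mean of ≥2 tests.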
`CS(=O)(=O)c1cccc(C(=O)N2CCCC[C@@H]2C(=O)N[C@@H](c2cc(F)c(Cl)cc2F)C2CC2)c1` [Example 113, (2R)-N-((R)-(4-chloro-2,5-difluorophenyl)(cyclopropyl)methyl)-1-(3-(methylsulfonyl)benzoyl)-2-piperidinecarboxamide] showed an AC1.4 of 0.1763 µM.
In the case of `C[C@@H](NC(=O)[C@H]1CCCN1C(=O)[C@H]1CCCN(S(=O)(=O)N2CC(C#N)C2)C1)c1ccc(F)c(F)c1` [Example 301, 1-(((3S)-1-((3-cyano-1-azetidinyl)sulfonyl)-3-piperidinyl)carbonyl)-N-((1R)-1-(3,4-difluorophenyl)ethyl)-D-prolinamide], the AC1.4 was 0.7943 µM.
Still for that read-out and setting: under `C[C@@H](NC(=O)[C@H]1CCCN1C(=O)[C@H]1CCCN(S(=O)(=O)N2CC(C#N)C2)C1)c1ccc(Cl)cc1` [Example 135, N-((1R)-1-(4-chlorophenyl)ethyl)-1-(((3S)-1-((3-cyano-1-azetidinyl)sulfonyl)-3-piperidinyl)carbonyl)-D-prolinamide] stands 0.2215 µM; under `CS(=O)(=O)N1CCC[C@H](C(=O)N2[C@@H](C(=O)N[C@@H](c3cc(F)c(Cl)cc3F)C3CC3)C[C@H]3C[C@H]32)C1` [Example 277, (1R,3R,5R)-N-((R)-(4-chloro-2,5-difluorophenyl)(cyclopropyl)methyl)-2-(((3S)-1-(methylsulfonyl)-3-piperidinyl)carbonyl)-2-azabicyclo[3.1.0]hexane-3-carboxamide], 0.7027 µM.
Same read-out and setting: with `O=C(N[C@@H](c1cc(F)c(Cl)cc1F)C1COC1)[C@H]1C[C@H]2C[C@H]2N1C(=O)c1cc(C(F)(F)F)ncn1` [Example 487, (1R,3R,5R)-N-((R)-(4-chloro-2,5-difluorophenyl)(3-oxetanyl)methyl)-2-((6-(trifluoromethyl)-4-pyrimidinyl)carbonyl)-2-azabicyclo[3.1.0]hexane-3-carboxamide] the figure was 2.218 µM; with `CS(=O)(=O)c1cccc(C(=O)N2C[C@@H](F)C[C@@H]2C(=O)N[C@@H](c2cc(F)c(Cl)cc2F)C2CC2)c1` [Example 201, (4S)-N-((R)-(4-chloro-2,5-difluorophenyl)(cyclopropyl)methyl)-4-fluoro-1-(3-(methylsulfonyl)benzoyl)-D-prolinamrde], 0.411 µM.
Molecule `O=C(NCc1ccc(C(F)(F)F)cc1)[C@H]1CCCN1C(=O)[C@H]1CCCN(S(=O)(=O)C2COC2)C1` [Example 664, 1-(((3S)-1-(3-oxetanylsulfonyl)-3-piperidinyl)carbonyl)-N-(4-(trifluoromethyl)benzyl)-D-prolinamide] gave an AC1.4 of 4.669 µM.
`CS(=O)(=O)c1ccc(F)c(C(=O)N2CCC[C@@H]2C(=O)N[C@@H](c2ccc(C(F)(F)F)cc2F)C2CC2)c1` [Example 464, N-((R)-cyclopropyl(2-fluoro-4-(trifluoromethyl)phenyl)methyl)-1-(2-fluoro-5-(methylsulfonyl)benzoyl)-D-prolinamide]: the AC1.4 stood at 1.612 µM.
Take `CC(C)C1(O)CN(S(=O)(=O)N2CCC[C@H](C(=O)N3CCC[C@@H]3C(=O)NCc3ccc(C(F)(F)F)cc3F)C2)C1` [Example 332, N-(2-fluoro-4-(trifluoromethyl)benzyl)-1-(((3S)-1-((3-hydroxy-3-(2-propanyl)-1-azetidinyl)sulfonyl)-3-piperidinyl)carbonyl)-D-prolinamide]: the AC1.4 was found to be 0.9097 µM.
For the molecule `N#CC1CN(S(=O)(=O)N2CCN[C@H](C(=O)N3CCC[C@@H]3C(=O)NCc3cc(Cl)cc(Cl)c3)C2)C1` [Example 790, 1-(((2S)-4-((3-cyano-1-azetidinyl)sulfonyl)-2-piperazinyl)carbonyl)-N-(3,5-dichlorobenzyl)-D-prolinamide], the AC1.4 was determined as 8.9725 µM.
On to `N#CC1CN(S(=O)(=O)c2cccc(C(=O)N3CCC[C@@H]3C(=O)N[C@H](CC(F)(F)F)c3ccc(C(F)(F)F)cc3)c2)C1` [Example 7, 1-(3-((3-cyano-1-azetidinyl)sulfonyl)benzoyl)-N-((1R)-3,3,3-trifluoro-1-(4-(trifluoromethyl)phenyl)propyl)-D-prolinamide], for which the AC1.4 is 0.01905 µM.
`Cc1cc(C(=O)N2[C@@H](C(=O)N[C@@H](c3cc(F)c(Cl)cc3F)C3COC3)C[C@H]3C[C@H]32)ccn1` [Example 621, (1R,3R,5R)-N-((R)-(4-chloro-2,5-difluorophenyl)(3-oxetanyl)methyl)-2-((2-methyl-4-pyridinyl)carbonyl)-2-azabicyclo[3.1.0]hexane-3-carboxamide] returned an AC1.4 of 3.9478 µM.
The molecule `CS(=O)(=O)c1cccc(C(=O)N2CC3(CCC3)C2C(=O)N[C@@H](c2ccc(C(F)(F)F)cc2F)C2CC2)c1` (stereo partly drawn) [Example 609, N-((R)-cyclopropyl(2-fluoro-4-(trifluoromethyl)phenyl)methyl)-2-(3-(methylsulfonyl)benzoyl)-2-azaspiro[3.3]heptane-1-carboxamide] displayed an AC1.4 of 3.7443 µM.
The molecule `CC[C@@H](NC(=O)[C@H]1CCCN1C(=O)c1cccc(S(C)(=O)=O)c1)c1ccc(C(F)(F)F)cc1F` [Example 630, N-((1R)-1-(2-fluoro-4-(trifluoromethyl)phenyl)propyl)-1-(3-(methylsulfonyl)benzoyl)-D-prolinamide] came in with an AC1.4 of 3.9185 µM.
In the case of `CS(=O)(=O)c1cccc(C(=O)N2C(=O)OC[C@@H]2C(=O)N[C@@H](c2ccc(C(F)(F)F)cc2F)C2CC2)c1` [Example 543, (4R)-N-((R)-cyclopropyl(2-fluoro-4-(trifluoromethyl)phenyl)methyl)-3-(3-(methylsulfonyl)benzoyl)-2-oxo-1,3-oxazolidine-4-carboxamide], the AC1.4 amounted to 2.813 µM.
As for `N#CC1CN(S(=O)(=O)N2CCC[C@H](C(=O)N3C[C@@H]4C[C@@H]4[C@@H]3C(=O)NCc3ccc(C(F)(F)F)cc3)C2)C1` [Example 177, (1S,2R,5R)-3-(((3S)-1-((3-cyano-1-azetidinyl)sulfonyl)-3-piperidinyl)carbonyl)-N-(4-(trifluoromethyl)benzyl)-3-azabicyclo[3.1.0]hexane-2-carboxamide], the AC1.4 worked out at 0.3113 µM.
`CS(=O)(=O)c1cccc(C(=O)N2CSC[C@@H]2C(=O)N[C@@H](c2ccc(C(F)(F)F)cc2F)C2CC2)c1` [Example 129, (4S)-N-((R)-cyclopropyl(2-fluoro-4-(trifluoromethyl)phenyl)methyl)-3-(3-(methylsulfonyl)benzoyl)-1,3-thiazolidine-4-carboxamide] yielded an AC1.4 of 0.2119 µM.
Consider `N#C[C@H]1C[C@H](S(=O)(=O)c2cccc(C(=O)N3CCCC[C@@H]3C(=O)NCc3ccc(Cl)nc3)c2)C1` [Example 420, (2R)-N-((6-chloro-3-pyridinyl)methyl)-1-((3-((trans-3-cyanocyclobutyl)sulfonyl)phenyl)carbonyl)-2-piperidinecarboxamide], for which the AC1.4 came out at 1.5455 µM.
The same measure, in the same setting: with `O=C(NCc1ccc(C(F)(F)F)cc1)[C@H]1CCCN1C(=O)c1cccc(S(=O)(=O)N2CC3(COC3)C2)c1` [Example 329, 1-((3-(2-oxa-6-azaspiro[3.3]hept-6-ylsulfonyl)phenyl)carbonyl)-N-(4-(trifluoromethyl)benzyl)-D-prolinamide] the figure was 0.8921 µM; with `CS(=O)(=O)c1ccc(C(=O)N2CCC[C@@H]2C(=O)N[C@@H](c2ccc(C(F)(F)F)cc2F)C2CC2)cn1` [Example 505, N-((R)-cyclopropyl(2-fluoro-4-(trifluoromethyl)phenyl)methyl)-1-((6-(methylsulfonyl)-3-pyridinyl)carbonyl)-D-prolinamidev], 2.1945 µM; with `N#CC1CN(S(=O)(=O)c2cccc(C(=O)N3C[C@@H](O)C[C@@H]3C(=O)NCc3ccc(C(F)(F)F)cc3)c2)C1` [Example 251, (4S)-1-((3-((3-cyano-1-azetidinyl)sulfonyl)phenyl)carbonyl)-4-hydroxy-N-(4-(trifluoromethyl)benzyl)-D-prolinamide], 0.6055 µM.

In another test the test system is Male CD rats. Put plainly: Pressure-volume loop (PV Loop) protocol (invasive hemodynamics): ejection fraction (% EF) during intravenous infusion, MEE. The format is in vivo. Also noted: unit not given here. Conditions: exposure at 10% increase in % EF from baseline, rat, formulation 40% HPbCD, corrected for rat plasma protein binding. The procedure:
Formulations: A compound as disclosed herein and water were admixed together. Either 30% wt/vol or 40% wt/vol of hydroxypropyl beta-cyclodextrin (HPBCD) was added and the mixture stirred until dissolved.
Echocardiography/ultrasound protocol: Serial echocardiography was conducted with the aid of an imaging system suitable for rodent cardiac ultrasound. Male CD rats (6-10 weeks of age; 6-12 animals per group) were cannulated with a jugular vein catheter to enable delivery of test article by intravenous infusion. […] An imaging probe was fixed in position to acquire short axis (SAX), motion (M)—mode images of the left cardiac ventricle at the level of the papillary muscles. Baseline data was acquired prior to initiating test article delivery. Test article (compound as disclosed herein in a HPBCD formulation), or vehicle control, was delivered with the aid of an infusion pump connected to the jugular vein catheter. Infusion rate of test article was increased at 15 min intervals, to a maximum of 5 mL/kg/hr. Ultrasound images were acquired at 5 min intervals. Additionally whole blood (not exceeding 10 uL) was collected via a tail nick at the same 5 min intervals for subsequent exposure determination.
Whole blood samples were analyzed by protein precipitation and liquid chromatography tandem mass spectrometry (LC-MS/MS) using multiple reaction monitoring (MRM) in positive ionization mode. The lower limit of quantitation (LLOQ) in the assay was 1 ng/mL and the upper limit of quantitation (ULOQ) was 10,000 ng/mL.
Pressure-volume loop (PV Loop) protocol (invasive hemodynamics): Left ventricular catheterization with a pressure-volume transducing catheter was applied as an alternative method to derive pharmacodynamic endpoints. A pressure volume conductance catheter was inserted via the left carotid artery and advanced into the left ventricle. The electrical signal emitted from the volume catheter was used to derive measures of relative volume at 5 min intervals. From these measures, left ventricular end diastolic volume (LVEDV) and left ventricular end systolic volume (LVESV) were derived. Ejection fraction was then derived using the following formula: % EF=((LVEDV−LVESV)/LVEDV)*100. Minimally efficacious exposure (MEE) was defined as the exposure at which a 10% increase in % EF from baseline was observed. The MEE was derived by plotting assayed exposures against % EF and using non-linear curve fitting (log(exposure) vs. % EF; variable slope, 4 parameters). Response to vehicle at each time point was averaged and all test article responses were normalized to baseline and subtracted from time matched (averaged) vehicle responses. Animal preparation, vehicle/test article delivery and blood sampling for exposure determination was as described in Echocardiography/ultrasound protocol.
`CS(=O)(=O)c1cccc(C(=O)N2CCCC[C@@H]2C(=O)N[C@@H](c2cc(F)c(Cl)cc2F)C2CC2)c1` [Example 113, (2R)-N-((R)-(4-chloro-2,5-difluorophenyl)(cyclopropyl)methyl)-1-(3-(methylsulfonyl)benzoyl)-2-piperidinecarboxamide]: the “MEE* (unbound), minimally efficacious exposure” value (“MEE* (unbound)” below) was 0.04.
As to `C[C@@H](NC(=O)[C@H]1CCCN1C(=O)[C@H]1CCCN(S(=O)(=O)N2CC(C#N)C2)C1)c1ccc(F)c(F)c1` [Example 301, 1-(((3S)-1-((3-cyano-1-azetidinyl)sulfonyl)-3-piperidinyl)carbonyl)-N-((1R)-1-(3,4-difluorophenyl)ethyl)-D-prolinamide], the “MEE* (unbound)” value is reported as 0.19.
For the molecule `C[C@@H](NC(=O)[C@H]1CCCN1C(=O)[C@H]1CCCN(S(=O)(=O)N2CC(C#N)C2)C1)c1ccc(Cl)cc1` [Example 135, N-((1R)-1-(4-chlorophenyl)ethyl)-1-(((3S)-1-((3-cyano-1-azetidinyl)sulfonyl)-3-piperidinyl)carbonyl)-D-prolinamide], the “MEE* (unbound)” value stood at 0.05.
